The text below walks through data of US20260265190A1, “AROMATIC COMPOUNDS FOR USE AS PROTEIN PHOSPHATASE 2A (PP2A) MODULATORS” (RAPPTA THERAPEUTICS OY, priority 2022, published 2026).

SMILES strings stand for the structures.

In the test the test system is HCC1937 cells. The test is described as follows: Cell viability assay (MTS), HCC1937 cell line. The test is classed as cell-based. As to conditions: Homo sapiens, HCC1937 cell line (footnote a), 48 hours. Here is the method:
HCC1937 cells are plated in a 96 well plate format at a density of 10,000 cells per well. After incubation overnight, cells are treated with a compound (e.g., compound 5) at the following concentrations: 80, 40, 20, 10, 5, 2.5, 1.25 μM. Compound concentrations are prepared in RPMI via serial dilutions from a starting stock of 80 mM. Forty-eight (48) hours after compound treatment, cell viability is assessed using the Promega CellTiter 96 aqueous one proliferation assay (Promega G3582, MTS assay) according to manufacturer's protocol.
The cell viability data was analyzed with GraphPad Prism software. The values were log transformed and analyzed with non-linear regression (curve-fit) using log (inhibitor) vs. response—variable slope (four parameters) and constraining the bottom to equal zero. Unless otherwise indicated, the GI50 values provided in Table 1 correspond to the LNCaP cell viability assays.

As usually defined, the GI50 is the concentration giving 50% growth inhibition. The low end stands for greater sensitivity of the cells, the high end for lower sensitivity of the cells.

Compound `CC(C)Oc1ccc(S(=O)(=O)N[C@@H](c2ccccc2)C2CCNCC2)cn1` [Example 18, (R)-6-isopropoxy-N-(phenyl(piperidin-4-yl)methyl)pyridine-3-sulfonamide] yielded a GI50 of 74.3 µM. That is a double-digit micromolar value. As to `CC(C)Oc1ccc(S(=O)(=O)NC(CN2CCNCC2)c2ccc(F)c(F)c2)cn1` (stereo not drawn) [Example 24, N-(1-(3,4-difluorophenyl)-2-(piperazin-1-yl)ethyl)-6-isopropoxypyridine-3-sulfonamide], growth was halved (GI50) at 27 µM. `CC(C)Oc1ccc(S(=O)(=O)NC2(c3ccc(Cl)cn3)CCNCC2)cn1` [Example 5, N-(4-(5-chloropyridin-2-yl)piperidin-4-yl)-6-isopropoxypyridine-3-sulfonamide] displayed a GI50 of 51.4 µM.
